Reference: the supplement of paper PMC10307832

Key:
Assay in all cases: relative viability (nuclei count vs DMSO), 5 days (fraction); higher = more cells survive
[1] = compound: CNC(=O)c1ccccc1Sc1ccc2c(/C=C/c3ccccn3)n[nH]c2c1 [Axitinib] + CC1(C)CCC(c2ccc(Cl)cc2)=C(CN2CCN(c3ccc(C(=O)NS(=O)(=O)c4ccc(N[C@H](CCN5CCOCC5)CSc5ccccc5)c(S(=O)(=O)C(F)(F)F)c4)cc3)CC2)C1 [Navitoclax] (partner 0.5 µM)
Procedure, shortened: (§1)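 Relative viability is defined as nuclei in treated wells over nuclei in vehicle wells. Duplicate plates were run and medians reported. Lung cancer cell lines in 1536-well plates were dosed by pin tool one day after seeding, with one drug or with a fixed anchor-drug dose plus five library-drug doses (not always all listed) in √10 steps, and nuclei were counted after 5 days.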

[2] = compound: Nc1nc(Nc2ccc3c(c2)CC[C@@H](N2CCCC2)CC3)nn1-c1cc2c(nn1)-c1ccccc1CCC2 [Bemcentinib] + NC(=O)Nc1cc(-c2cccc(F)c2)sc1C(=O)N[C@H]1CCCNC1 [AZD7762] (partner 0.2 µM)
Procedure, shortened: as §1

[3] = compound: Nc1nc(Nc2ccc3c(c2)CC[C@@H](N2CCCC2)CC3)nn1-c1cc2c(nn1)-c1ccccc1CCC2 [Bemcentinib] + O=C(CCCCCCC(=O)Nc1ccccc1)NO [Vorinostat] (partner 1 µM)
Procedure, shortened: as §1

[4] = compound: Nc1nc(Nc2ccc3c(c2)CC[C@@H](N2CCCC2)CC3)nn1-c1cc2c(nn1)-c1ccccc1CCC2 [Bemcentinib] + Nc1ncn([C@H]2C[C@H](O)[C@@H](CO)O2)c(=O)n1 [Decitabine] (partner 2 µM)
Procedure, shortened: as §1

Cell Line | relative viability ([1]; first compound 0.005 µM) | relative viability ([1]; first compound 0.01581 µM) | relative viability ([1]; first compound 0.05 µM) | relative viability ([1]; first compound 0.1581 µM) | relative viability ([1]; first compound 0.5 µM) | relative viability ([2]; first compound 0.04 µM) | relative viability ([2]; first compound 0.1265 µM) | relative viability ([2]; first compound 0.4 µM) | relative viability ([2]; first compound 1.265 µM) | relative viability ([2]; first compound 4 µM) | relative viability ([3]; first compound 0.04 µM) | relative viability ([3]; first compound 0.1265 µM) | relative viability ([3]; first compound 0.4 µM) | relative viability ([3]; first compound 1.265 µM) | relative viability ([3]; first compound 4 µM) | relative viability ([4]; first compound 0.04 µM) | relative viability ([4]; first compound 0.1265 µM) | relative viability ([4]; first compound 0.4 µM) | relative viability ([4]; first compound 1.265 µM) | relative viability ([4]; first compound 4 µM)
Calu-6 | 0.923 | 0.87 | 0.751 | 0.885 | 0.929 | – | – | – | – | – | – | – | – | – | – | – | – | – | – | –
EBC-1 | 0.468 | 0.443 | 0.453 | 0.509 | 0.554 | – | – | – | – | – | – | – | – | – | – | – | – | – | – | –
NCI-H1703 | 0.868 | 0.36 | 0.306 | 0.212 | 0.305 | 0.109 | 0.121 | 0.145 | 0.16 | 0.134 | – | – | – | – | – | – | – | – | – | –
NCI-H2228 | 0.698 | 0.893 | 0.847 | 0.99 | 1.19 | – | – | – | – | – | 0.574 | 0.878 | 0.763 | 0.749 | 0.756 | – | – | – | – | –
SW 1573 | 0.914 | 1.03 | 1.05 | 0.852 | 0.904 | – | – | – | – | – | 0.662 | 0.785 | 0.873 | 0.879 | 0.765 | 0.427 | 0.55 | 0.595 | 0.544 | 0.468
SK-LU-1 | 0.955 | 1.2 | 0.932 | 0.812 | 1.13 | – | – | – | – | – | 0.801 | 0.762 | 0.883 | 0.887 | 0.746 | 0.533 | 0.764 | 0.74 | 0.615 | 0.623
SW 900 | – | – | – | – | – | 0.559 | 0.65 | 0.689 | 0.552 | 0.538 | 0.461 | 0.924 | 0.602 | 0.303 | 0.501 | 0.406 | 0.479 | 0.432 | 0.428 | 0.398
NCI-H1299 | 1.14 | 1.04 | 1.07 | 1.04 | 1.07 | – | – | – | – | – | – | – | – | – | – | – | – | – | – | –
CAL-12T | 1.29 | 1.47 | 1.15 | 1.19 | 1.45 | 0.654 | 0.757 | 0.618 | 0.636 | 0.485 | 0.907 | 1 | 0.824 | 0.762 | 0.831 | – | – | – | – | –
NCI-H2009 | 1.19 | 1.19 | 1.17 | 1.18 | 1.23 | – | – | – | – | – | 0.671 | 0.783 | 0.71 | 0.723 | 0.722 | 0.404 | 0.353 | 0.492 | 0.399 | 0.434
NCI-H522 | – | – | – | – | – | 0.872 | 0.766 | 0.771 | 0.949 | 0.849 | 0.87 | 0.959 | 0.859 | 0.799 | 0.907 | 0.759 | 0.789 | 0.657 | 0.558 | 0.619
UMC-11 | 0.322 | 0.305 | 0.282 | 0.347 | 0.294 | – | – | – | – | – | 0.387 | 0.359 | 0.344 | 0.321 | 0.376 | 0.576 | 0.565 | 0.521 | 0.628 | 0.58
A549 | 1.19 | 1.24 | 1.25 | 1.13 | 1.18 | – | – | – | – | – | – | – | – | – | – | 0.248 | 0.247 | 0.319 | 0.296 | 0.26
